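Step 1: Grow cells in 96-well plates. Step 2: Expose to compound for 48 hours at 5 concentrations. Step 3: Interpolate endpoints linearly; if unreached, use highest concentration. The concentration for 50% growth inhibition is given as GI50.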 The source made the active and inactive calls. No stated cut-off is given here; in the data, active = GI50 up to about 1.1 µM and inactive = higher.
How the values were obtained:
Assay in all cases: inhibition of tumour cell growth, NCI panel, 48 h
HCT-116 = tested on: HCT-116
UO-31 = tested on: UO-31
NCI-H522 = tested on: NCI-H522
TK-10 = tested on: TK-10
HCC 2998 = tested on: HCC 2998
M19-MEL = tested on: M19-MEL
UACC-257 = tested on: UACC-257
SF-295 = tested on: SF-295
CCRF-CEM = tested on: CCRF-CEM
SN12C = tested on: SN12C
EKVX = tested on: EKVX
SNB-75 = tested on: SNB-75
U-251 = tested on: U-251
A498 = tested on: A498
SF-539 = tested on: SF-539
NCI-H460 = tested on: NCI-H460
RPMI-8226 = tested on: RPMI-8226

Measured: GI50

COc1cccc(-c2cc(C(=O)Nc3ccc(Cl)cc3)nc(N)n2)c1
inactive: HCT-116 42.9 µM | UO-31 > 100 µM | NCI-H522 32.4 µM | TK-10 > 100 µM | HCC 2998 87.7 µM | M19-MEL 45.7 µM | UACC-257 81.1 µM | SF-295 87.9 µM | CCRF-CEM > 100 µM | SN12C 57.7 µM | EKVX > 100 µM | SNB-75 21.4 µM | U-251 60.8 µM | A498 61.9 µM | SF-539 40 µM | NCI-H460 36.8 µM | RPMI-8226 53.1 µM

N/N=C(\CC1OC(=O)c2ccccc21)c1ccco1 (centres undefined)
inactive: HCT-116 > 100 µM | UO-31 > 100 µM | NCI-H522 > 100 µM | TK-10 > 100 µM | HCC 2998 > 100 µM | M19-MEL > 100 µM | UACC-257 > 100 µM | SF-295 > 100 µM | CCRF-CEM 59.2 µM | EKVX > 100 µM | SNB-75 > 100 µM | A498 > 100 µM | SF-539 > 100 µM | NCI-H460 > 100 µM

Nn1c(S)nnc1NNC(=O)C(=O)Nc1cc(Cl)c(Cl)cc1Cl
inactive: HCT-116 > 100 µM | UO-31 > 100 µM | NCI-H522 > 100 µM | TK-10 > 100 µM | HCC 2998 > 100 µM | M19-MEL > 100 µM | UACC-257 > 100 µM | SF-295 > 100 µM | CCRF-CEM 20 µM | SN12C > 100 µM | EKVX > 100 µM | SNB-75 15.5 µM | U-251 > 100 µM | A498 > 100 µM | SF-539 > 100 µM | NCI-H460 > 100 µM

CCNC(=O)C#CC(=O)NCC
inactive: HCT-116 21.9 µM | UO-31 > 100 µM | NCI-H522 > 31.1 µM | TK-10 > 100 µM | HCC 2998 > 100 µM | M19-MEL > 100 µM | UACC-257 > 100 µM | SF-295 > 100 µM | CCRF-CEM > 46.1 µM | SN12C > 100 µM | EKVX > 100 µM | SNB-75 > 69 µM | U-251 > 91.4 µM | A498 > 10 µM | SF-539 > 100 µM | NCI-H460 > 100 µM | RPMI-8226 > 42.4 µM

CC1NOC(=O)C1/N=N/c1ccc(Cl)cc1Cl (centres undefined)
inactive: HCT-116 21.9 µM | UO-31 24.4 µM | NCI-H522 17.8 µM | TK-10 23.8 µM | HCC 2998 29.9 µM | M19-MEL 27.2 µM | UACC-257 24.5 µM | SF-295 28.8 µM | CCRF-CEM 30.9 µM | SN12C 21.6 µM | EKVX 24.6 µM | SNB-75 20.9 µM | U-251 18.5 µM | A498 35.3 µM | SF-539 47.4 µM | NCI-H460 24.7 µM

COC(=O)c1c/c(=N\NC(=O)CC(=O)Nc2ccc(C)cc2)c2ccccc2o1
inactive: HCT-116 > 100 µM | UO-31 > 100 µM | NCI-H522 > 100 µM | TK-10 > 100 µM | M19-MEL > 100 µM | UACC-257 > 100 µM | SF-295 > 100 µM | CCRF-CEM > 100 µM | SN12C > 100 µM | EKVX > 100 µM | SNB-75 > 100 µM | U-251 > 100 µM | A498 > 100 µM | SF-539 > 100 µM | NCI-H460 > 100 µM | RPMI-8226 > 100 µM

CCOC(=O)C1S/C(=N\c2ccc(Cl)cc2)N=C1C (centres undefined)
inactive: HCT-116 16.6 µM | UO-31 19 µM | NCI-H522 17.3 µM | TK-10 28.4 µM | HCC 2998 17.7 µM | M19-MEL 17.3 µM | UACC-257 > 10 µM | SF-295 19.6 µM | SN12C 17.5 µM | EKVX 21.4 µM | SNB-75 21.3 µM | U-251 18.8 µM | A498 18.3 µM | SF-539 17.9 µM | NCI-H460 23.6 µM | RPMI-8226 27.9 µM

C[C@]12CCC(=O)C=C1CC[C@@H]1[C@@H]2CC[C@]2(C)C(=O)NC(=O)C[C@@H]12
inactive: HCT-116 > 100 µM | UO-31 > 100 µM | NCI-H522 > 100 µM | TK-10 > 100 µM | HCC 2998 > 100 µM | M19-MEL > 100 µM | UACC-257 > 100 µM | SF-295 > 100 µM | CCRF-CEM > 100 µM | SN12C > 100 µM | EKVX > 100 µM | SNB-75 > 100 µM | U-251 > 100 µM | A498 > 100 µM | SF-539 > 100 µM | NCI-H460 > 100 µM | RPMI-8226 > 100 µM

CCOc1ccc(NC(=O)/C(Cc2nc3ccccc3nc2O)=N\O)cc1
inactive: HCT-116 > 100 µM | UO-31 > 100 µM | NCI-H522 > 100 µM | TK-10 > 100 µM | HCC 2998 > 100 µM | M19-MEL > 100 µM | UACC-257 > 100 µM | CCRF-CEM > 100 µM | EKVX 75 µM | SNB-75 70.1 µM | U-251 > 100 µM | A498 > 100 µM | SF-539 > 100 µM | NCI-H460 > 100 µM | RPMI-8226 > 100 µM

[N-]=[N+]=CC(=O)C1(C(=O)C=[N+]=[N-])CC1
inactive: HCT-116 > 100 µM | UO-31 > 100 µM | NCI-H522 > 100 µM | TK-10 > 100 µM | HCC 2998 > 100 µM | M19-MEL > 100 µM | UACC-257 > 100 µM | SF-295 > 100 µM | CCRF-CEM > 100 µM | SN12C > 100 µM | EKVX > 100 µM | SNB-75 > 100 µM | U-251 > 100 µM | A498 > 100 µM | SF-539 > 100 µM | NCI-H460 > 100 µM

Cc1ccc(C)c(NC(=O)c2cc(-c3ccc([N+](=O)[O-])cc3)nc(N)n2)c1
inactive: HCT-116 > 100 µM | UO-31 > 100 µM | NCI-H522 > 100 µM | TK-10 > 100 µM | HCC 2998 > 100 µM | M19-MEL > 100 µM | UACC-257 > 100 µM | SF-295 > 100 µM | CCRF-CEM > 100 µM | SN12C > 100 µM | EKVX > 100 µM | SNB-75 > 100 µM | U-251 > 100 µM | A498 > 100 µM | SF-539 > 100 µM | NCI-H460 > 100 µM | RPMI-8226 > 100 µM

O=C(Nc1ccc(Cl)c(Cl)c1)C(=O)Nn1c(S)nc2ccccc2c1=O
inactive: HCT-116 > 100 µM | UO-31 > 100 µM | NCI-H522 > 100 µM | TK-10 > 100 µM | HCC 2998 > 100 µM | M19-MEL > 100 µM | UACC-257 > 100 µM | SF-295 > 100 µM | CCRF-CEM > 100 µM | SN12C > 100 µM | EKVX > 100 µM | SNB-75 > 100 µM | U-251 > 100 µM | A498 > 100 µM | SF-539 > 100 µM | NCI-H460 > 100 µM | RPMI-8226 > 100 µM

C/C(=N\NC(N)=O)C(CN1CCCCC1)C(c1ccccc1)c1c(O)c2ccccc2oc1=O (centres undefined)
inactive: HCT-116 > 100 µM | UO-31 > 100 µM | NCI-H522 > 100 µM | TK-10 > 100 µM | HCC 2998 > 100 µM | M19-MEL > 100 µM | UACC-257 > 100 µM | SF-295 > 100 µM | CCRF-CEM > 100 µM | SN12C > 100 µM | EKVX > 100 µM | SNB-75 > 100 µM | U-251 > 100 µM | A498 > 100 µM | SF-539 > 100 µM | NCI-H460 > 100 µM | RPMI-8226 > 100 µM

CN(C)CCCSc1c2ccccc2nc2cc(NCC(=O)Nc3ccccc3-c3ccccc3NC(=O)CNc3ccc4c(SCCCN(C)C)c5ccccc5nc4c3)ccc12
inactive: HCT-116 > 100 µM | UO-31 > 100 µM | NCI-H522 > 100 µM | TK-10 > 100 µM | HCC 2998 > 100 µM | M19-MEL 49.7 µM | UACC-257 > 100 µM | SF-295 > 100 µM | CCRF-CEM 25.3 µM | SN12C > 100 µM | EKVX > 100 µM | SNB-75 > 100 µM | U-251 > 100 µM | A498 > 100 µM | SF-539 > 100 µM | NCI-H460 > 100 µM | RPMI-8226 65 µM

Cn1c(=O)c2[nH]cnc2n(CC(N)=O)c1=O
inactive: HCT-116 > 100 µM | UO-31 > 100 µM | NCI-H522 > 100 µM | TK-10 > 100 µM | M19-MEL > 100 µM | CCRF-CEM > 100 µM | SN12C > 100 µM | EKVX > 100 µM | SNB-75 > 100 µM | U-251 > 100 µM | A498 > 100 µM | SF-539 > 100 µM | NCI-H460 > 100 µM | RPMI-8226 > 100 µM

Clc1ccc(-n2nnc(C3=NCCCN3)c2-c2ccccc2)cc1
inactive: HCT-116 > 100 µM | UO-31 88.7 µM | NCI-H522 > 100 µM | TK-10 > 100 µM | HCC 2998 > 100 µM | M19-MEL > 100 µM | UACC-257 > 100 µM | SF-295 > 100 µM | CCRF-CEM > 100 µM | SN12C > 100 µM | EKVX > 100 µM | SNB-75 > 100 µM | U-251 > 100 µM | A498 > 100 µM | SF-539 > 100 µM | NCI-H460 > 100 µM | RPMI-8226 > 100 µM

Source: ChEMBL document CHEMBL1201862, “PubChem BioAssay data set” (2004)
